Experiment: xn = mol fraction of the nth substance listed
Conditions: 101.3 kPa, Liquid; for viscosity: Falling or rolling sphere viscometry; for mass density: Vibrating tube method

CCCC[n+]1ccn(C)c1.O=S(=O)([N-]S(=O)(=O)C(F)(F)F)C(F)(F)F + COC(=O)OC
Conditions | mass density [kg/m3] | viscosity [mPa·s]
288.15 K, x1 = 0.0898 | 1178.03 | 1.605
288.15 K, x1 = 0.1882 | 1250.71 | 3.207
288.15 K, x1 = 0.2749 | 1295.36 | 5.396
288.15 K, x1 = 0.3754 | 1334.26 | 9.186
288.15 K, x1 = 0.472 | 1362.15 | 14.3
288.15 K, x1 = 0.5745 | 1385.8 | 22.53
288.15 K, x1 = 0.673 | 1404.16 | 32.06
288.15 K, x1 = 0.7799 | 1419.88 | 44.52
288.15 K, x1 = 0.8948 | 1434.65 | 61.53
288.15 K, x1 = 1 | 1445.66 | 78.02
293.15 K, x1 = 0.0898 | 1172.07 | 1.473
293.15 K, x1 = 0.1882 | 1245.1 | 2.886
293.15 K, x1 = 0.2749 | 1289.95 | 4.762
293.15 K, x1 = 0.3754 | 1329.02 | 7.93
293.15 K, x1 = 0.472 | 1357.02 | 12.12
293.15 K, x1 = 0.5745 | 1380.77 | 18.87
293.15 K, x1 = 0.673 | 1399.14 | 26.3
293.15 K, x1 = 0.7799 | 1414.97 | 35.81
293.15 K, x1 = 0.8948 | 1429.79 | 48.74
293.15 K, x1 = 1 | 1440.84 | 61.32
298.15 K, x1 = 0.0898 | 1166.07 | 1.365
298.15 K, x1 = 0.1882 | 1239.48 | 2.611
298.15 K, x1 = 0.2749 | 1284.55 | 4.235
298.15 K, x1 = 0.3754 | 1323.78 | 6.922
298.15 K, x1 = 0.472 | 1351.9 | 10.39
298.15 K, x1 = 0.5745 | 1375.74 | 16.3
298.15 K, x1 = 0.673 | 1394.18 | 21.86
298.15 K, x1 = 0.7799 | 1410.07 | 29.38
298.15 K, x1 = 0.8948 | 1424.93 | 39.46
298.15 K, x1 = 1 | 1436.01 | 48.93
303.15 K, x1 = 0.0898 | 1160.05 | 1.263
303.15 K, x1 = 0.1882 | 1233.85 | 2.376
303.15 K, x1 = 0.2749 | 1279.14 | 3.797
303.15 K, x1 = 0.3754 | 1318.55 | 6.1
303.15 K, x1 = 0.472 | 1346.78 | 8.998
303.15 K, x1 = 0.5745 | 1370.71 | 14
303.15 K, x1 = 0.673 | 1389.23 | 18.59
303.15 K, x1 = 0.7799 | 1405.18 | 24.46
303.15 K, x1 = 0.8948 | 1420.08 | 32.86
303.15 K, x1 = 1 | 1431.21 | 39.84
308.15 K, x1 = 0.0898 | 1154.02 | 1.173
308.15 K, x1 = 0.1882 | 1228.22 | 2.176
308.15 K, x1 = 0.2749 | 1273.73 | 3.428
308.15 K, x1 = 0.3754 | 1313.32 | 5.404
308.15 K, x1 = 0.472 | 1341.67 | 7.885
308.15 K, x1 = 0.5745 | 1365.7 | 11.98
308.15 K, x1 = 0.673 | 1384.29 | 16.17
308.15 K, x1 = 0.7799 | 1400.31 | 20.58
308.15 K, x1 = 0.8948 | 1415.26 | 27.73
308.15 K, x1 = 1 | 1426.43 | 32.91
313.15 K, x1 = 0.0898 | 1147.98 | 1.095
313.15 K, x1 = 0.1882 | 1222.58 | 2.002
313.15 K, x1 = 0.2749 | 1268.32 | 3.113
313.15 K, x1 = 0.3754 | 1308.09 | 4.822
313.15 K, x1 = 0.472 | 1336.58 | 6.959
313.15 K, x1 = 0.5745 | 1360.7 | 10.3
313.15 K, x1 = 0.673 | 1379.37 | 14.01
313.15 K, x1 = 0.7799 | 1395.44 | 17.54
313.15 K, x1 = 0.8948 | 1410.45 | 23.58
313.15 K, x1 = 1 | 1421.66 | 27.56
318.15 K, x1 = 0.0898 | 1141.93 | 1.022
318.15 K, x1 = 0.1882 | 1216.94 | 1.849
318.15 K, x1 = 0.2749 | 1262.92 | 2.837
318.15 K, x1 = 0.3754 | 1302.88 | 4.332
318.15 K, x1 = 0.472 | 1331.49 | 6.189
318.15 K, x1 = 0.5745 | 1355.71 | 8.913
318.15 K, x1 = 0.673 | 1374.45 | 12.1
318.15 K, x1 = 0.7799 | 1390.59 | 15.2
318.15 K, x1 = 0.8948 | 1405.67 | 19.93
318.15 K, x1 = 1 | 1416.91 | 23.33
323.15 K, x1 = 0.0898 | 1135.85 | 0.958
323.15 K, x1 = 0.1882 | 1211.3 | 1.719
323.15 K, x1 = 0.2749 | 1257.51 | 2.6
323.15 K, x1 = 0.3754 | 1297.67 | 3.943
323.15 K, x1 = 0.472 | 1326.4 | 5.54
323.15 K, x1 = 0.5745 | 1350.73 | 7.757
323.15 K, x1 = 0.673 | 1369.55 | 10.53
323.15 K, x1 = 0.7799 | 1385.74 | 13.21
323.15 K, x1 = 0.8948 | 1400.88 | 17.01
323.15 K, x1 = 1 | 1412.17 | 19.97
328.15 K, x1 = 0.0898 | 1129.76 | 0.899
328.15 K, x1 = 0.1882 | 1205.65 | 1.588
328.15 K, x1 = 0.2749 | 1252.1 | 2.394
328.15 K, x1 = 0.3754 | 1292.46 | 3.59
328.15 K, x1 = 0.472 | 1321.33 | 4.994
328.15 K, x1 = 0.5745 | 1345.75 | 6.772
328.15 K, x1 = 0.673 | 1364.66 | 9.191
328.15 K, x1 = 0.7799 | 1380.9 | 11.54
328.15 K, x1 = 0.8948 | 1396.12 | 14.93
328.15 K, x1 = 1 | 1407.45 | 17.41

Source: the NIST ThermoML archive (doi:10.1021/acs.jced.8b00591)
